Numbered stars: 1 amine (or outer) side, 2 acyl side, 3 side chain; on linkers, the order of the positions; unused ones are H or OH. * marks the point of attachment. Suc = O=C(CCC(=O)[*:2])[*:1]; Propionyl = CCC(=O)*
Key:
Type in all cases: in vivo, rat
[1] = Example 7: combination with metformin in Zucker Diabetic Fatty rats, FPG, PPG, HbA1c; settings: ZDF rats; 8 weeks once daily; metformin 400 mg/kg/day oral, UGP302 5 μg/kg/day s.c.
Procedure: (§1) To assess the potential of UGP302 (SEQ ID NO: 15) in combination with metformin, Zucker Diabetic Fatty rats were used. At the age of 6 weeks 40 rats were randomized into four groups according to HbA1c, FPG and BW. The groups were: Control (Vehicle), Metformin 400 mg/kg/day, UGP302 5 μg/kg/day and the combination of the two molecules in the stated respective amounts. The treatments were given once daily, and metformin was dosed orally, while UGP302 was given subcutaneously, and the animals were treated for 8 weeks. Fasting blood glucose (FPG) and non-fasted blood glucose (PPG) were monitored biweekly, while HbA1c was measured at termination.

[2] = Example 7: oral glucose tolerance test in Zucker Diabetic Fatty rats; settings: ZDF rats; metformin 400 mg/kg/day oral, UGP302 5 μg/kg/day s.c.
Procedure: as §1
(§2) To further assess the effect of both single doses of each molecule and the combination of these at those same doses, the rats underwent an oral glucose tolerance test (OGTT, FIGS. 23A-23B) and an insulin tolerance test (ITT, FIGS. 24A-24B).

[3] = Example 7: insulin tolerance test in Zucker Diabetic Fatty rats; settings: ZDF rats; metformin 400 mg/kg/day oral, UGP302 5 μg/kg/day s.c.
Procedure: as §1, §2

[4] = Example 3: short-term oral treatment, body weight and food intake in DIO rats; settings: for reduction in body weight vs oral sCT at same dose: DIO rats; for energy balance vs equivalent doses of oral sCT: 0.5, 1 and 2 mg/kg doses p.o., male DIO rats
Procedure: The study was performed in male Levin-DIO rats (diet-sensitive) and Levin-DR (diet-resistant) (TacLevin: CD (SD) DIO) (Taconic, Hudson, N.Y., U.S.A.) obtained at age 6-7 weeks. On arrival, DIO rats were given high fat diet (60 kcal %) (#D12495, Research Diets Inc., New Brunswick, N.J., USA) and kept on the same diet for 12 weeks prior to and during the experiment. DR rats were given low-fat diet and served as control group. Animals were pair-wise housed throughout the study. Rats were handled and pre-dosed once daily with MilliQ H2O for 2-3 weeks prior to experimental start to reduce stress-induced hyperglycemia. On the day prior to study start animals were given a single dose of vehicle. Baseline parameters were recorded in an overnight fasting (16 h) condition. Rats were randomized into treatment groups based on fasting body weight (BW) and fasting plasma glucose (FPG). Body weight, food and water intake were recorded prior to and at study end.
Animals treated with oral sCT or oral UGP284/UGP298/UGP302 received doses of 0.5 mg/kg, 1.0 mg/kg or 2.0 mg/kg combined with 150 mg/kg 5-CNAC—all dissolved in milliQ H2O.
(§3) Drug administration were given by per oral (p.o.) gavage b.i.d. during the study period and as single dose in the morning prior to start of OGTT.
(§4) Following the initial (1st) OGTT, animals were randomized into treatment groups based on FBG and BW. Animals were pre-treated 3 days (b.i.d.) prior to 2nd OGTT. The study was performed in an x-over design with each animal being its own control.
(§5) Statistical analysis was performed by one-way ANOVA followed by the Dunnett's post hoc test for multiple comparison. Student's t-test was performed to compare two paired group. All analysis was performed using GRAPHPAD PRISM software (GraphPad Prism, San Diego, Calif. U.S.A). Incremental area under curve (iAUC) during OGTT was calculated by the trapezoidal method. A value of P<0.05 was considered to be significant. All data are presented as mean±standard error of the mean (SEM).
FIG. 9A, FIG. 9B, FIG. 9C, FIG. 9D, FIG. 9E, and FIG. 9F show the effect of three different doses of oral sCT/UGP284/UGP298/UGP302 containing 0.5, 1 and 2 mg/kg compound were applied by gavage twice daily to 4 groups of rats for 3 days. * P<0.05, ** P<0.01 vs oral sCT. Results are presented as means±SEM.

[5] = Example 3: OGTT after 3 days of oral treatment in DIO rats; settings: doses of 0.5, 1 and 2 mg/kg p.o.
Procedure: as §3
Animals were given 2 g/kg single dose dissolved in milliQ H20.
as §4
OGTT Following Overnight Fasting (16 h):
Blood sampling and glycemia were measured by heated tail venous puncture. Whole blood glucose levels were determined with an ACCU-CHEK® Avia blood glucose meter (Roche Diagnostics, Rotkreuz, Switzerland). Blood (approx 300 μl) is collected in 1 ml MiniCollect K3EDTA plasma-tube (Greiner-Bio-One GmbH, Frickenhausen, Germany), inverted, and stored on ice. Tubes are centrifuged 3000×g (5000 rpm in table centrifuge) for 10 min at 4° C. and plasma obtained. Plasma samples are stored at −20° C. until analysis. A total of ˜2.5 ml blood is obtained during OGTT (˜0.3% of body weight).
as §5
FIG. 10A, FIG. 10B, FIG. 10C, FIG. 10D, FIG. 10E, and FIG. 10F show the effect of oral sCT versus oral UGPs on glucose tolerance during OGTT in DIO rats. Three different doses of oral sCT/UGP284/UGP298/UGP302 containing 0.5, 1 and 2 mg/kg compound were applied by gavage twice daily to 4 groups of rats for 3 days prior to OGTT. The experimental set-up was a cross-over design. * P<0.05, ** P<0.01, *** P<0.001 vs oral vehicle. Results are presented as means±SEM.

| Compound | fasting blood glucose (FPG) [1] | non-fasted blood glucose (PPG) [1] | glucose tolerance (OGTT) [2] | insulin tolerance (ITT) [3] | reduction in body weight vs oral sCT at same dose ([4]; 2 mg/kg p.o. b.i.d. for 3 days) | energy balance vs equivalent doses of oral sCT [4] | glucose tolerance during OGTT [5] | reduction in body weight vs oral sCT at same dose ([4]; 1 mg/kg p.o. b.i.d. for 3 days) |
| --- | --- | --- | --- | --- | --- | --- | --- | --- |
| CN(C)C(=N)N=C(N)N [metformin, reference compound] | reduced | reduced | individually improve | individually improve | – | – | – | – |
| PrCSNLSTCVLGKLSQELHKLQTYPRTNTGSGTP-NH2 (Propionyl-CSNLSTCVLGKLSQELHKLQTYPRTNTGSGTP-NH2; ends and bridges not checked) [UGP284, calcitonin mimetic] | – | – | – | – | significantly difference at 2 mg/kg dose | superiority to equivalent doses of oral sCT | improvement in glucose tolerance | – |
| SuccCSNLSTCVLGKLSQELHKLQTYPRTNTGSGTP-NH2 (Suc-CSNLSTCVLGKLSQELHKLQTYPRTNTGSGTP-NH2; ends and bridges not checked) [UGP298, calcitonin mimetic] | – | – | – | – | significantly different when compared with oral sCT | superiority to equivalent doses of oral sCT | improvement in glucose tolerance | significantly different when compared with oral sCT |

Reference: patent publication US9862754B2, “Peptide analogs for treating diseases and disorders” (KeyBioscience AG, priority 2011, dated 2018)
